Source: PubChem BioAssay AID1963982 (Molecular Pharmacology Branch, DTP, NCI, 2024)
Values joined by “and” are separate entries in the source; they are usually repeats but may differ in a detail not shown here. Equal entries are not always repeated.

Tested on: 313798-341-R-J2-PDC spheroids, viability
Test: Anticancer human tumor 313798-341-R-J2-PDC patient-derived cervical squamous cell carcinoma cell line growth inhibition [PI3K]
Settings: spheroids with HUVEC and MSC; for viability, T/C: stronger effect = lower value
Summary of the method: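 Complex 3D spheroids (cancer cells + endothelial HUVEC + mesenchymal stem cells); drug pairs of targeted agent x inavolisib/alpelisib/duvelisib/copanlisib; half-log series from ~Cmax, max 10 microM if Cmax unknown; endpoint viability.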
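Further: spheroids exposed to compounds for seven days.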
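Wherever viability, T/C is given: 100% = DMSO vehicle control viability.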

For `CC1(C)CCC(Nc2ncc(C(F)(F)F)c(-c3c[nH]c4c(P(C)(C)=O)c(C#N)ccc34)n2)CN1` (centres undefined) + COc1c(OCCCN2CCOCC2)ccc2c3n(c(=NC(=O)c4cnc(N)nc4)nc12)CCN3, the IC50 (curve of first compound, second compound 0.00316 µM) was less than 31.6 nM, the IC50 (curve of first compound, second compound 0.01 µM) was less than 31.6 nM and the IC50 (curve of first compound, second compound 0.0316 µM) was less than 31.6 nM. It also gave an IC50 (curve of first compound, second compound 0.1 µM) of less than 31.6 nM, an IC50 (curve of first compound, second compound 0.316 µM) of less than 31.6 nM and an IC50 (curve of first compound, second compound 1 µM) of less than 31.6 nM. It also gave a viability, T/C (second compound 0.00316 µM, first compound 0.0316 µM) of 44.6%, a viability, T/C (second compound 0.00316 µM, first compound 0.1 µM) of 42.3% and a viability, T/C (second compound 0.00316 µM, first compound 0.316 µM) of 39.7%. The viability, T/C (second compound 0.00316 µM, first compound 1 µM) was 43.9%, the viability, T/C (second compound 0.00316 µM, first compound 3.16 µM) was 45.4% and the viability, T/C (second compound 0.00316 µM, first compound 10 µM) was 33.7%. The viability, T/C (second compound 0.01 µM, first compound 0.0316 µM) was 39.6%, the viability, T/C (second compound 0.01 µM, first compound 0.1 µM) was 34.7% and the viability, T/C (second compound 0.01 µM, first compound 0.316 µM) was 36.8%. The viability, T/C (second compound 0.01 µM, first compound 1 µM) was 38.1%, the viability, T/C (second compound 0.01 µM, first compound 3.16 µM) was 43.1% and the viability, T/C (second compound 0.01 µM, first compound 10 µM) was 29.1%. The viability, T/C (second compound 0.0316 µM, first compound 0.0316 µM) was 27.4%, the viability, T/C (second compound 0.0316 µM, first compound 0.1 µM) was 27.9% and the viability, T/C (second compound 0.0316 µM, first compound 0.316 µM) was 27.4%. The viability, T/C (second compound 0.0316 µM, first compound 1 µM) was 27.9%, the viability, T/C (second compound 0.0316 µM, first compound 3.16 µM) was 26.5% and the viability, T/C (second compound 0.0316 µM, first compound 10 µM) was 16.5%. The viability, T/C (second compound 0.1 µM, first compound 0.0316 µM) was 18.9%, the viability, T/C (second compound 0.1 µM, first compound 0.1 µM) was 21.1% and the viability, T/C (second compound 0.1 µM, first compound 0.316 µM) was 20%. It also gave a viability, T/C (second compound 0.1 µM, first compound 1 µM) of 20.2%, a viability, T/C (second compound 0.1 µM, first compound 3.16 µM) of 21.5% and a viability, T/C (second compound 0.1 µM, first compound 10 µM) of 3.93%. For the same compound, the viability, T/C (second compound 0.316 µM, first compound 0.0316 µM) was 12.2%, the viability, T/C (second compound 0.316 µM, first compound 0.1 µM) was 11.7% and the viability, T/C (second compound 0.316 µM, first compound 0.316 µM) was 12.2%. It also gave a viability, T/C (second compound 0.316 µM, first compound 1 µM) of 12%, a viability, T/C (second compound 0.316 µM, first compound 3.16 µM) of 8.87% and a viability, T/C (second compound 0.316 µM, first compound 10 µM) of 1.12%. For the same compound, the viability, T/C (second compound 1 µM, first compound 0.0316 µM) was 9.94%, the viability, T/C (second compound 1 µM, first compound 0.1 µM) was 9.34% and the viability, T/C (second compound 1 µM, first compound 0.316 µM) was 7.8%. For the same compound, the viability, T/C (second compound 1 µM, first compound 1 µM) was 7.89%, the viability, T/C (second compound 1 µM, first compound 3.16 µM) was 5.87% and the viability, T/C (second compound 1 µM, first compound 10 µM) was 1.15%.

With `CCCS(=O)(=O)Nc1ccc(F)c(C(=O)c2c[nH]c3ncc(-c4ccc(Cl)cc4)cc23)c1F` the viability, T/C (compound 0.0316 µM) was 98.2% [middle of 4 runs], the viability, T/C (compound 0.1 µM) was 102% [middle of 4 runs] and the viability, T/C (compound 0.316 µM) was 101% [middle of 4 runs]. For the same compound, the viability, T/C (compound 1 µM) was 100% [middle of 4 runs], the viability, T/C (compound 3.16 µM) was 107% (2×) and 99.1% and 108% and the viability, T/C (compound 10 µM) was 18.7% [middle of 4 runs]. For the same compound, the IC50 (curve of compound) was 6.37 µM [middle of 4 runs].
